# Entries after “also recorded” stand apart in the source; their conditions may differ.
# Tests used:
# [1] = tested on: HIF-1a, thrombin, IL-6, MCP-1, MMP2; experiment: Immunofluorescence of cerebrovascular expression of HIF-1a and inflammatory proteins in AD transgenic mice; format: in vivo; conditions: 100 mg/kg daily for 34 weeks
# Method: (§1) Administration of thrombin inhibitor to mice and immunofluorescent staining of mice brain sections: Adult wild-type 3×TgAD—LaFerla (control) and 3×TgAD—LaFerla mice were purchased at 8 weeks of age from The Jackson Laboratory (Bar Harbor, Me.). Daily administration of the orally available direct thrombin inhibitor (DTI) dabigatran etexylate (Pradaxa®, Boehringer Ingelheim, Germany) (100 mg/kg) in PBS to AD mice and vehicle to control mice began at 18 weeks of age and continued daily for 34 weeks. DTI was administered in food. To ensure all food, and therefore drug, was consumed while maintaining ad libitum weight, mice were weighed, and food intake monitored daily. All animal procedures were performed in accordance with NIH “Guide for the Care and Use of Laboratory Animals” and Texas Tech University Health Sciences Center Institutional Animal Care and Use Committee (IACUC) guidelines.
# Mice were euthanized, and brain tissue fixed with 10% neutral buffered formalin (NBF). The brain was removed and 1 mm blocks of tissue from cerebral cortex were post fixed in 10% NBF for additional 12 h and embedded in paraffin. […] Sections (3 per mouse) were incubated with DAPI solution at room temperature for 25 min and viewed using an Olympus IX71 microscope and quantified with HAMAMATSU imaging software. […]
# [2] = tested on: brain oxidative stress; experiment: Short treatment of transgenic Tg4510 AD mice, brain oxidative stress; format: in vivo; conditions: non-published results
# Method: Fifteen-month-old Tg4510 mice (The Jackson Laboratory, Bar Harbor, Me.) treated for one week with vehicle dimethyl sulfoxide (DMSO) (Spectrum Chemicals & Laboratory Products, New Brunswick, N.J.) or Dabigatran (Pradaxa®, Boehringer Ingelheim Pharmaceuticals, Inc., Ridgefield, Conn.) at doses of 100 mg/kg via oral gavage. Wild-type control mice were treated with vehicle for one week. Brains were collected and homogenized and protein expression was evaluated using western blot.
# [3] = tested on: HIF-1a, thrombin, IL-6, MCP-1, MMP2 mRNA; experiment: Real-time PCR of inflammatory gene expression in brain endothelial cells exposed to 6 h hypoxia; format: cell-based, rat; conditions: 1 nM, p<0.01-0.001, FIG. 1
# Source text: (§2) Culture and hypoxic exposure of rat brain endothelial cells: Brain endothelial cell cultures were obtained from rat brain micro-vessels, as previously described (Diglio et al., 1993). The purity of these cultures was confirmed using antibodies to the endothelial cell surface antigen Factor VIII. Endothelial cells used in this study (passages 8-15) were maintained in Dulbecco's modified Eagle's medium (DMEM, Sigma-Aldrich, St. Louis, Mo.) supplemented with 10% fetal bovine serum (FBS), 1% antibiotic/antimycotic, and 2 mM glutamine. Confluent endothelial cell cultures were washed three times with Hank's balanced salt solution (HBSS, Gibco, Grand Island, N.Y.) and then incubated at 37° C. with serum-free DMEM for 6 h under hypoxic (1% 02) or normoxic (21% 02) conditions.
# Real-time PCR analysis: RNA from cultured rat brain endothelial cells was prepared using the TRI Reagent RT (Molecular Research Center, Inc., Cincinnati, Ohio), according to manufacturer protocol. […] Fold difference between two samples (relative quantification) was determined by use of the delta-delta method [S1/S2=2−(T1−T2)], where S1 and S2 represent samples 1 and 2, and T1 and T2 represent the threshold cycles of samples 1 and 2, respectively. […]
# [4] = tested on: rat brain endothelial cells; experiment: Cell survival by MTT assay, brain endothelial cell cultures exposed to hypoxia or normoxia; format: cell-based
# Source text: as §2
# Measurement of cell survival by MTT assay: Cells were washed with phosphate buffer saline (PBS) and incubated with the MTT reagent 3-(4,5-dimethylthiazol-2-yl)-2-5-diphenyl tetrazolium bromide (1:40 dilution) for 5-10 min at 37° C. The cells convert the MTT reagent to formazan which is quantified by colorimetric assay (Cell Titer 95 Aqueous solution cell proliferation assay, Promega, Madison, Wis.). The formazan product was read at 490 nm. The number of control cells, i.e., viable cells not exposed to any treatment, was defined as 100%.
# Brain micro-vessel endothelial cell cultures were incubated with the DTI dabigatran (10 pM-100 nM), exposed to hypoxia for 6 h and cell viability measured by MTT assay. There was a modest (19%) but significant (p<0.05) increase in cell survival at 1-10 nM DTI while DTI doses in excess of 100 nM were toxic.
# [5] = tested on: HIF-1a, thrombin, IL-6, MCP-1, MMP2 mRNA; experiment: Real time PCR of brain tissue from AD transgenic mice; format: in vivo; conditions: 100 mg/kg daily for 34 weeks
# Method: as §1
# Real-time PCR analysis: RNA from cultured rat brain endothelial cells was prepared using the TRI Reagent RT (Molecular Research Center, Inc., Cincinnati, Ohio), according to manufacturer protocol. […] Fold difference between two samples (relative quantification) was determined by use of the delta-delta method [S1/S2=2−(T1−T2)], where S1 and S2 represent samples 1 and 2, and T1 and T2 represent the threshold cycles of samples 1 and 2, respectively.
# [6] = tested on: reactive oxygen species; experiment: ROS level (DHE) in frontal cortex brain sections of AD transgenic mice; format: in vivo; conditions: DTI for 34 weeks, p<0.001 vs untreated AD mice
# Method: Administration of thrombin inhibitor to mice and immunofluorescent staining of mice brain sections: Adult wild-type 3×TgAD—LaFerla (control) and 3×TgAD—LaFerla mice were purchased at 8 weeks of age from The Jackson Laboratory (Bar Harbor, Me.). Daily administration of the orally available direct thrombin inhibitor (DTI) dabigatran etexylate (Pradaxa®, Boehringer Ingelheim, Germany) (100 mg/kg) in PBS to AD mice and vehicle to control mice began at 18 weeks of age and continued daily for 34 weeks. DTI was administered in food. To ensure all food, and therefore drug, was consumed while maintaining ad libitum weight, mice were weighed, and food intake monitored daily. […]
# Detection of reactive oxygen species in cell culture and mouse brain tissue sections: Brain endothelial cell cultures were grown on coverslips in 24-well plates, incubated at 37° C. in serum free media with or without dabigatran (DTI, 1 nM) and exposed to hypoxic (6 h, 1% 02) or normoxic (21% 02) conditions. […] Brain sections and cell cultures were incubated with 5 pM of dihydroethidium (DH E) fluorescence dye (Life Technologies, Grand Island, N.Y.; D23107) and Hoechst33342 NucBlue® stain (Life Technologies, R37605) for 30 min in the dark at room temperature. […] Following two washes with PBS, images were captured immediately using an Olympus IX71 microscope and analyzed using HAMAMATSU imaging software. […]
# [7] = tested on: reactive oxygen species in brain endothelial cell cultures; experiment: ROS levels (DHE) in cultured brain endothelial cells; format: cell-based, rat; conditions: for hypoxia-induced increase in ROS generation: 6 h hypoxia, p<0.001; for ROS level, mean signal intensity of DHE stained cells to non-stained cells: DTI 1 nM, mean ± SD
# Source text: as §2
# Detection of reactive oxygen species in cell culture and mouse brain tissue sections: Brain endothelial cell cultures were grown on coverslips in 24-well plates, incubated at 37° C. in serum free media with or without dabigatran (DTI, 1 nM) and exposed to hypoxic (6 h, 1% 02) or normoxic (21% 02) conditions. Sections from frozen brain (10-20 µm thickness) were placed on coverslips in 24-well plates with 0.5 ml of PBS at room temperature. Brain sections and cell cultures were incubated with 5 pM of dihydroethidium (DH E) fluorescence dye (Life Technologies, Grand Island, N.Y.; D23107) and Hoechst33342 NucBlue® stain (Life Technologies, R37605) for 30 min in the dark at room temperature. DHE is a cell permeable compound which reacts with intracellular ROS to form oxyethidium, which emits a bright red color detectable by fluorescent microscopy. Following two washes with PBS, images were captured immediately using an Olympus IX71 microscope and analyzed using HAMAMATSU imaging software.
# Brain endothelial cell cultures were incubated in serum-free media or serum free media plus DTI (1 nM) and exposed to hypoxia (1% 02) or normoxic (21% 02) conditions for 6 h. The cells were incubated for 30 min with 5 pM of Dihydroethidium (DHE, red) fluorescent dye and NucBlue stain (blue). ROS generation was assessed by quantitation of signal intensities of DHE stained cells to non-stained cells. Data represent mean signal intensity of DHE stained cells to non-stained cells±SD from at least 3 separate experiments performed in duplicate. ***p<0.001 vs. Control; a p<0.001 vs. Hypoxia.
# [8] = tested on: TNFa, IL-6, IL-8, MMPs; experiment: Production of inflammatory proteins from endothelial cells in AD models
compound,measurement,setting,value
CCCCCCOC(=O)NC(=N)c1ccc(NCc2nc3cc(C(=O)N(CCC(=O)OCC)c4ccccn4)ccc3n2C)cc1,"cerebrovascular expression of HIF-1a, thrombin, IL-6, MCP-1, MMP2 proteins",[1]; FIG. 2,significantly decreases expression
same,"cerebrovascular expression of HIF-1a, thrombin, IL-6, MCP-1, MMP2 proteins","[1]; FIG. 2, listed as DTI",reduced expression of these proteins
same,brain oxidative stress,[2],lowering brains' oxidative stress
same,"hypoxia-mediated effects on inflammatory gene expression (HIF-1a, thrombin, IL-6, MCP-1, MMP2 mRNA)",[3],reduced hypoxia-mediated effects on inflammatory gene expression
same,increase in cell survival,"[4]; hypoxia 6 h, 1-10 nM DTI, p<0.05",19%
same,DTI doses toxic to cells,"[4]; hypoxia 6 h, MTT",> 100 nM
same,effect on cell survival under normoxic conditions,"[4]; normoxic, doses under 100 nM, data not shown",did not affect cell survival
same,"RNA levels of HIF-1a, thrombin, IL-6, MCP-1, MMP2 in brain tissue","[5]; p<0.01 to p<0.001, FIG. 3",reduces expression
same,"RNA levels of HIF-1a, thrombin, IL-6, MCP-1, MMP2 in brain tissue","[5]; p<0.01 to p<0.001, FIG. 3, listed as DTI",decrease in RNA levels
same,ROS generation (DHE level) in brain sections,[6]; FIG. 4,inhibited; also recorded: significantly decreases expression
same,ROS generation (DHE level) in brain sections,"[6]; FIG. 4, listed as DTI",decreased DHE level
same,hypoxia-induced increase in ROS generation,[7],inhibited
same,hypoxia-induced increase in ROS generation,[7]; listed as DTI,blocked
same,"ROS level, mean signal intensity of DHE stained cells to non-stained cells",[7]; Control + DTI: normoxic (21% O2) 6 h,0.65±
same,"ROS level, mean signal intensity of DHE stained cells to non-stained cells","[7]; Hypoxia + DTI: hypoxia (1% O2) 6 h, p<0.001 vs. Hypoxia",0.92 ± 0.06a
same,"production of TNFa, IL-6, IL-8, MMPs and other inflammatory proteins from endothelial cells",[8],reducing the production
